Test results: US4690926A, “Boxazomycin A and B, new antibiotics containing benzoxazole nucleus” (Bristol-Myers Company, priority 1986, dated 1987)
≈ marks a conversion by molar mass, not a printed value.

The compounds below were run on S. epidermidis A22547. Details: Staphylococcus epidermidis, Nutrient agar (Eiken), kanamycin-resistant.
Assay type: cell-based
`Cc1ncc(O)c(-c2nc3c(C(N)=O)c(O)cc(C)c3o2)n1` [Boxazomycin B] showed an MIC of 0.2 µg/mL (≈ 0.666 µM).
In the case of `Cc1cc(O)c(C(N)=O)c2nc(-c3nc(CO)ncc3O)oc12` [Boxazomycin A], the MIC is reported as 0.4 µg/mL (≈ 1.26 µM).
`NC[C@H]1O[C@H](O[C@H]2[C@H](O)[C@@H](O[C@H]3O[C@H](CO)[C@@H](O)[C@H](N)[C@H]3O)[C@H](N)C[C@@H]2N)[C@H](O)[C@@H](O)[C@@H]1O` [Kanamycin, kanamycin, reference compound] showed an MIC of 25 µg/mL (≈ 51.6 µM).
